In patent US10494332B2, “Protein tyrosine phosphatases or SHP2 inhibitors and uses thereof” (Indiana University Research and Technology Corporation, priority 2015, dated 2019):

What follows are molecules tested against T1, mPTPB (Mycobacterium tuberculosis, UniProt I6WXK4) (assay: biochemical). Conditions: IC50 mPTPB.
T1 sequence (I6WXK4 1-276): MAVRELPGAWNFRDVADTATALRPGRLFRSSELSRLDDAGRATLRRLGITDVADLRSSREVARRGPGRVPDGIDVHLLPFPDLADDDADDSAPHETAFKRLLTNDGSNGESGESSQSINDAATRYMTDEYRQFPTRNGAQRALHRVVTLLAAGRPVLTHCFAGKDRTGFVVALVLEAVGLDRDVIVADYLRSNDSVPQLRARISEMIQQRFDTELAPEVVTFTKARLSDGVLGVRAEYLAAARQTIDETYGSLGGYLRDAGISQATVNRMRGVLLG

Going from `O=C(Nc1nc2ccccc2s1)C(c1ccccc1)S(=O)(=O)O` (centres unmarked) [Compound L319N15] to `O=C(CS(=O)(=O)O)Nc1nc2ccccc2s1` [Compound L335N15], the IC50 rises from 0.116 µM to 9.5 µM (82-fold).

Each molecule was assayed against T2, HePTP (Homo sapiens, UniProt P35236) (assay: PTP inhibition assay (pNPP)). Conditions: pNPP at Km, pH 7.0, 25° C.
T2 sequence (P35236 1-360): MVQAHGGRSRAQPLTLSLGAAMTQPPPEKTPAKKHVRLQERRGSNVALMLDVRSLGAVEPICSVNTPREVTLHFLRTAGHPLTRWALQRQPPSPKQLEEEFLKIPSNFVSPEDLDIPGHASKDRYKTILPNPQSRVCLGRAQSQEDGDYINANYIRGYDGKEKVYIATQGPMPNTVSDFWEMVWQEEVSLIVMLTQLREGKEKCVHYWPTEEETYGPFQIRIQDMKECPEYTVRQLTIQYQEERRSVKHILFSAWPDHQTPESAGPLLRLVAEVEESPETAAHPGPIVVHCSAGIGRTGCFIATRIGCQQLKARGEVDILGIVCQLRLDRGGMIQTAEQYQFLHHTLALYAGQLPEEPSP
Type: biochemical

`O=C(CS(=O)(=O)O)Nc1ccc2nc(C(F)(F)F)[nH]c2c1` and `O=C(CS(=O)(=O)O)Nc1nc2ccc([N+](=O)[O-])cc2s1` [Compound L335N15-07] cannot be ordered by IC50: over 100 µM for the first, over 100 µM for the second.

Going from `O=C(NCCNC(=O)C(c1ccccc1)S(=O)(=O)O)c1cccc(C(=O)c2ccccc2)c1` (centres unmarked) [Compound L319-02-A60] to `O=C(Nc1ccc(-c2ccccc2)cc1)C(c1ccccc1)S(=O)(=O)O` (centres unmarked) [Compound L319N08], the IC50 falls from over 200 µM to 78 µM.

`O=C(NCc1ccc(NC(=O)C(c2ccccc2)S(=O)(=O)O)cc1)c1ccccc1-c1ccc(C(F)(F)F)cc1` (centres unmarked) [Compound L319-05-A64] and `CCCCc1ccc(NC(=O)C(=O)Nc2ccccc2NC(=O)C(c2ccccc2)S(=O)(=O)O)cc1` (centres unmarked) [Compound L319-21-M06] cannot be ordered by IC50: 150 µM for the first, over 50 µM for the second.

`O=C(Nc1cccc(OCc2ccccc2)c1)C(=O)Nc1ccccc1NC(=O)C(c1ccccc1)S(=O)(=O)O` (centres unmarked) [Compound L319-21-M52] and `O=C(Nc1ccc(OCc2ccccc2)c(Cl)c1)C(c1ccccc1)S(=O)(=O)O` (centres unmarked) [Compound L319M50] cannot be ordered by IC50: over 50 µM for the first, over 100 µM for the second.

Compared with `O=C(Nc1nc2ccccc2s1)C(c1ccccc1)S(=O)(=O)O` (centres unmarked) [Compound L319N15], `O=C(CS(=O)(=O)O)Nc1nc2ccccc2s1` [Compound L335N15] is higher in IC50: 50 µM for the first, over 100 µM for the second. The first is the more potent here.

Each molecule was assayed against T3, PTPH1 (Homo sapiens, UniProt P26045) (assay: PTP inhibition assay (pNPP)). Conditions: not given.
T3 sequence (P26045 1-913): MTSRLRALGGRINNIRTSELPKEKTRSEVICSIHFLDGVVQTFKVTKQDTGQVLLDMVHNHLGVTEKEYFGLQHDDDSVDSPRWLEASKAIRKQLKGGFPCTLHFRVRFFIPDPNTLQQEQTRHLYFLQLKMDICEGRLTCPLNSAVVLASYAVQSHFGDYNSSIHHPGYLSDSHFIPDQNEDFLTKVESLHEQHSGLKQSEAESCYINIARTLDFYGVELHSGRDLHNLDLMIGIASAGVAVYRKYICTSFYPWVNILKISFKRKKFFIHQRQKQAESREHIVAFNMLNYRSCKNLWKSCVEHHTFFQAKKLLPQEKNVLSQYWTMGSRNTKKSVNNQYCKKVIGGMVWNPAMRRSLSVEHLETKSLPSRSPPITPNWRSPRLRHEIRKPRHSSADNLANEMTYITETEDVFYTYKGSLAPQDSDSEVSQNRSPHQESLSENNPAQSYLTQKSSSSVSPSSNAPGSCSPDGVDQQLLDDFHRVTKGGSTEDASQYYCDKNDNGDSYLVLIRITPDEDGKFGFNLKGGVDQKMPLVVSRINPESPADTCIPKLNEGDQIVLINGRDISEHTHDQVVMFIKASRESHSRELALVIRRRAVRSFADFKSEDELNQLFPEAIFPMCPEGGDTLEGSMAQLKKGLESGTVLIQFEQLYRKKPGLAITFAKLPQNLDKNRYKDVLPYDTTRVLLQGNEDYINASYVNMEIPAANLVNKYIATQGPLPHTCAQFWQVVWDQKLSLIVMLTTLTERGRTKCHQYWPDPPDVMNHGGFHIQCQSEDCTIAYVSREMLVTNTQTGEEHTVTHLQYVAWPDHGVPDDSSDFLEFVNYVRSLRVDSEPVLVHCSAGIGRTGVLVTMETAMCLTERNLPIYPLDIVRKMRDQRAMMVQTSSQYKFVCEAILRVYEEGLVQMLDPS
Type: biochemical

`O=C(CS(=O)(=O)O)Nc1ccc2nc(C(F)(F)F)[nH]c2c1` and `O=C(CS(=O)(=O)O)Nc1nc2ccc([N+](=O)[O-])cc2s1` [Compound L335N15-07] cannot be ordered by IC50: over 100 µM for the first, over 100 µM for the second.

With `O=C(CS(=O)(=O)O)Nc1nc2ccccc2s1` [Compound L335N15] the IC50 was over 100 µM.

These molecules were tested against PTPγ (Homo sapiens, UniProt P23470) (assay: PTP inhibition assay (pNPP)). Conditions: not given.
Chain of PTPγ (P23470 20-1445): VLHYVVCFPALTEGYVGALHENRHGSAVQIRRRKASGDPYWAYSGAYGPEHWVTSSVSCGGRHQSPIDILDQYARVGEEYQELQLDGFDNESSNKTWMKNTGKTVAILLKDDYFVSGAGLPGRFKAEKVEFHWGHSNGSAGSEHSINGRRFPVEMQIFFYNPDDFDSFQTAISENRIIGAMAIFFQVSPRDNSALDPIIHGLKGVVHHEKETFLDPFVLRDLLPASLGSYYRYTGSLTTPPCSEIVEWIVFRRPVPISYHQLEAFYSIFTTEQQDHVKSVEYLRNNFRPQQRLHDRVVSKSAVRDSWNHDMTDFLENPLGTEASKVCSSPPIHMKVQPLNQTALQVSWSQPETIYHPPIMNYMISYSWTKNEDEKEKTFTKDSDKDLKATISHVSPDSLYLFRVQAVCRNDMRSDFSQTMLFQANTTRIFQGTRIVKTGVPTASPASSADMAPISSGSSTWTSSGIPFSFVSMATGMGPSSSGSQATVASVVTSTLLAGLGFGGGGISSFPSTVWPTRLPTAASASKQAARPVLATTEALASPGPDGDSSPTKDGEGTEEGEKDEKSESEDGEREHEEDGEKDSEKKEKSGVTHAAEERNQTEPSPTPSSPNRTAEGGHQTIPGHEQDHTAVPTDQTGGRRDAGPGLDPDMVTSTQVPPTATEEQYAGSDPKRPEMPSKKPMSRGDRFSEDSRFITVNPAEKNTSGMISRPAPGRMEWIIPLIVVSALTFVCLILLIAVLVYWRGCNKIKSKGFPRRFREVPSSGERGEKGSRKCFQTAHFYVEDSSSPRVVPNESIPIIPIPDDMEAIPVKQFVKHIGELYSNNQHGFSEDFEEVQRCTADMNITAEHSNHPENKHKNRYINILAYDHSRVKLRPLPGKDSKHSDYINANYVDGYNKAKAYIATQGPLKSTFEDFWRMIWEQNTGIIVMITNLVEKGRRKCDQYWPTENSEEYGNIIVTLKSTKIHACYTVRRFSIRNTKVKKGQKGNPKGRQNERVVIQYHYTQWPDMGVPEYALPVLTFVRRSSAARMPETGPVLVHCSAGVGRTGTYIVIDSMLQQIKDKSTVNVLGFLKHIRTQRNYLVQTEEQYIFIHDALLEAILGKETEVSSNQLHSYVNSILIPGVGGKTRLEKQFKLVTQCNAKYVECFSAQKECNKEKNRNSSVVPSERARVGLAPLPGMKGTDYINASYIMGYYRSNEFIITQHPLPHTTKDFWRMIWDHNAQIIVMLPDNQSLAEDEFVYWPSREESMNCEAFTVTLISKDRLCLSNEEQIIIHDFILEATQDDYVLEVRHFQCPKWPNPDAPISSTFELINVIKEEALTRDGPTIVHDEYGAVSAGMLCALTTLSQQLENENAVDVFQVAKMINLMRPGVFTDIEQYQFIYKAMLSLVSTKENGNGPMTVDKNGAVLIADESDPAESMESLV
Type: biochemical

`O=C(CS(=O)(=O)O)Nc1ccc2nc(C(F)(F)F)[nH]c2c1` and `O=C(CS(=O)(=O)O)Nc1nc2ccc([N+](=O)[O-])cc2s1` [Compound L335N15-07] cannot be ordered by IC50: over 100 µM for the first, over 100 µM for the second.

`O=C(Nc1nc2ccccc2s1)C(c1ccccc1)S(=O)(=O)O` (centres unmarked) [Compound L319N15] and `O=C(CS(=O)(=O)O)Nc1nc2ccccc2s1` [Compound L335N15] cannot be ordered by IC50: over 200 µM for the first, over 100 µM for the second.

What follows are molecules tested against T4, VHX (Homo sapiens, UniProt Q9NRW4) (assay: PTP inhibition assay (pNPP)). Conditions: IC50 VHX, pNPP at Km, pH 7.0, 25° C.
T4 sequence (Q9NRW4 1-184): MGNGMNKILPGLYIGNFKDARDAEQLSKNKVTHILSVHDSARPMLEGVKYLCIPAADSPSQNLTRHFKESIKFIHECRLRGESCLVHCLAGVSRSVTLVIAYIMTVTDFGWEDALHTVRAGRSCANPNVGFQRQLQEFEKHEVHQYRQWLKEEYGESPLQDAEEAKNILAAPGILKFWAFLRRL
Type: biochemical

In the case of `O=C(Nc1ccc(-c2ccccc2)cc1)C(c1ccccc1)S(=O)(=O)O` (centres unmarked) [Compound L319N08], the IC50 is reported as over 200 µM.

Same assay, conditions: pNPP at Km, pH 7.0, 25° C.; read-out: IC50 VHX

`O=C(CS(=O)(=O)O)Nc1ccc2nc(C(F)(F)F)[nH]c2c1` and `O=C(CS(=O)(=O)O)Nc1nc2ccc([N+](=O)[O-])cc2s1` [Compound L335N15-07] cannot be ordered by IC50: over 100 µM for the first, over 100 µM for the second.

`O=C(NCCNC(=O)C(c1ccccc1)S(=O)(=O)O)c1cccc(C(=O)c2ccccc2)c1` (centres unmarked) [Compound L319-02-A60] and `O=C(Nc1ccc(OCc2ccccc2)c(Cl)c1)C(c1ccccc1)S(=O)(=O)O` (centres unmarked) [Compound L319M50] cannot be ordered by IC50: over 200 µM for the first, over 100 µM for the second.

`CCCCc1ccc(NC(=O)C(=O)Nc2ccccc2NC(=O)C(c2ccccc2)S(=O)(=O)O)cc1` (centres unmarked) [Compound L319-21-M06] and `O=C(Nc1cccc(OCc2ccccc2)c1)C(=O)Nc1ccccc1NC(=O)C(c1ccccc1)S(=O)(=O)O` (centres unmarked) [Compound L319-21-M52] cannot be ordered by IC50: over 50 µM for the first, over 50 µM for the second.

`O=C(Nc1nc2ccccc2s1)C(c1ccccc1)S(=O)(=O)O` (centres unmarked) [Compound L319N15] and `O=C(CS(=O)(=O)O)Nc1nc2ccccc2s1` [Compound L335N15] cannot be ordered by IC50: over 200 µM for the first, over 100 µM for the second.

Same assay, conditions: pNPP at Km, pH 7.0, 25° C.; read-out: IC50 VHX (second VHX line of Table 15)

`O=C(CS(=O)(=O)O)Nc1ccc2nc(C(F)(F)F)[nH]c2c1` and `O=C(CS(=O)(=O)O)Nc1nc2ccc([N+](=O)[O-])cc2s1` [Compound L335N15-07] cannot be ordered by IC50: over 100 µM for the first, over 100 µM for the second.

`O=C(Nc1nc2ccccc2s1)C(c1ccccc1)S(=O)(=O)O` (centres unmarked) [Compound L319N15] and `O=C(CS(=O)(=O)O)Nc1nc2ccccc2s1` [Compound L335N15] cannot be ordered by IC50: over 200 µM for the first, over 100 µM for the second.

Each molecule was assayed against T5, VHZ (Homo sapiens, UniProt Q9BVJ7) (assay: PTP inhibition assay (pNPP)). Conditions: not given.
T5 sequence (Q9BVJ7 1-150): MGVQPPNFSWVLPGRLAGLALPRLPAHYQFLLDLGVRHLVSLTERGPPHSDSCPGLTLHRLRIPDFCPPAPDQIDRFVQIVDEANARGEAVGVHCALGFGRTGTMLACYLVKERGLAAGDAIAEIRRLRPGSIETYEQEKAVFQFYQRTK
Type: biochemical

`O=C(Nc1nc2ccccc2s1)C(c1ccccc1)S(=O)(=O)O` (centres unmarked) [Compound L319N15] showed an IC50 of over 200 µM.

What follows are molecules tested against T6, CDC14A (Homo sapiens, UniProt Q9UNH5) (assay: PTP inhibition assay (pNPP)). Conditions: not given.
T6 sequence (Q9UNH5 1-594): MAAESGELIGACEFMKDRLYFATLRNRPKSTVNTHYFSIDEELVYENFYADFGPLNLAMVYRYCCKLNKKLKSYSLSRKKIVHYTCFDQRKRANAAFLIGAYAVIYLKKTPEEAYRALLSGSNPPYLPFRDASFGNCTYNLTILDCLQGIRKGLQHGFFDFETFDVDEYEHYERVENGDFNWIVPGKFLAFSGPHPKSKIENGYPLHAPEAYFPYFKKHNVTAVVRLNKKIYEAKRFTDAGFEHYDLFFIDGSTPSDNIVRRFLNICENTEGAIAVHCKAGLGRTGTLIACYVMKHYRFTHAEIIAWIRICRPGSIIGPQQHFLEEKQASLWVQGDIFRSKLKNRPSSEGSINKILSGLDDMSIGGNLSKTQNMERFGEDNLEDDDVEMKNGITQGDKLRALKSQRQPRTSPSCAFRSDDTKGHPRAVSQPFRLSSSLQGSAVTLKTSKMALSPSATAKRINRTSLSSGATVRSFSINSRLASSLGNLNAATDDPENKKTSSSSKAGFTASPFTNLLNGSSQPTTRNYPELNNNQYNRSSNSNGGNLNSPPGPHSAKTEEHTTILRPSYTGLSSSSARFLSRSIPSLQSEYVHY
Type: biochemical

`O=C(CS(=O)(=O)O)Nc1ccc2nc(C(F)(F)F)[nH]c2c1` and `O=C(CS(=O)(=O)O)Nc1nc2ccc([N+](=O)[O-])cc2s1` [Compound L335N15-07] cannot be ordered by IC50: over 100 µM for the first, over 100 µM for the second.

`O=C(Nc1nc2ccccc2s1)C(c1ccccc1)S(=O)(=O)O` (centres unmarked) [Compound L319N15] and `O=C(CS(=O)(=O)O)Nc1nc2ccccc2s1` [Compound L335N15] cannot be ordered by IC50: over 200 µM for the first, over 100 µM for the second.

What follows are molecules tested against PTPμ (Homo sapiens, UniProt P28827) (assay: PTP inhibition assay (pNPP)). Conditions: not given.
Chain of PTPμ (P28827 21-1452): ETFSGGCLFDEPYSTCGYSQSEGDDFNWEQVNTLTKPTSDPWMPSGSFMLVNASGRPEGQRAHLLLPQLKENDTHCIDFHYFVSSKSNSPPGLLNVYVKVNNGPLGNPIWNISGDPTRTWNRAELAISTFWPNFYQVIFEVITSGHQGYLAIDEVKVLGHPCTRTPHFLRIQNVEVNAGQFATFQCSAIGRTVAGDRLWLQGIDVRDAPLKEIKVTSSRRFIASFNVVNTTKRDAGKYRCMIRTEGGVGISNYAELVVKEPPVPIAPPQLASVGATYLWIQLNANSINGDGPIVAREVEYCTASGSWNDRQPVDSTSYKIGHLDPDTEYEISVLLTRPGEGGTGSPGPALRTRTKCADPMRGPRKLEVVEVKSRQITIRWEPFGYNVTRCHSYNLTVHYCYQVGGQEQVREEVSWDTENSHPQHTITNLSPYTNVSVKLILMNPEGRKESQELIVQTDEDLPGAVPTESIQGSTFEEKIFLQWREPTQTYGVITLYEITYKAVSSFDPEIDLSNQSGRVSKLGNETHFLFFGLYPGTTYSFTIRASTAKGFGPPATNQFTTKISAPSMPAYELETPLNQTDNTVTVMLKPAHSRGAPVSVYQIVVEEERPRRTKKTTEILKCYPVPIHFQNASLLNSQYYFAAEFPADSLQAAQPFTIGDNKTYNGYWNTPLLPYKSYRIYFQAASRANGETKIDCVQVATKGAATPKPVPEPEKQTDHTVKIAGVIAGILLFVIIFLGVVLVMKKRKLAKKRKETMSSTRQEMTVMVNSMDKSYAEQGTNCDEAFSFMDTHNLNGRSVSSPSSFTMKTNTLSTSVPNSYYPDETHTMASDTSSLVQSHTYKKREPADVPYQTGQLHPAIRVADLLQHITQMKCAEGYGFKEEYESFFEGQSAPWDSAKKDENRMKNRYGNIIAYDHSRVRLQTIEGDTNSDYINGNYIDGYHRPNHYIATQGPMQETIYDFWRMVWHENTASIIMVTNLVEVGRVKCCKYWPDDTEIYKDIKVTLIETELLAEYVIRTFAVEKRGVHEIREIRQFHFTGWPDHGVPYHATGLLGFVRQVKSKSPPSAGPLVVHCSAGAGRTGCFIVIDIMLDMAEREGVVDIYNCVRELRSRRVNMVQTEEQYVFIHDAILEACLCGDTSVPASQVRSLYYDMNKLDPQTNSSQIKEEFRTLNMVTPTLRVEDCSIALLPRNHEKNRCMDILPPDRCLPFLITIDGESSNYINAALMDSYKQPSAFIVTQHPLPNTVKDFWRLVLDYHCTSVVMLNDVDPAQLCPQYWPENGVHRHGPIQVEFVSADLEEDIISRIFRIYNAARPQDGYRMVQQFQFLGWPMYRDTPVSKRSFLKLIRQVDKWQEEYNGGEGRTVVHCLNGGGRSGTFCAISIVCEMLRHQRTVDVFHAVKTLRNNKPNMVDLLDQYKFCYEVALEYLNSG

`O=C(CS(=O)(=O)O)Nc1ccc2nc(C(F)(F)F)[nH]c2c1` and `O=C(CS(=O)(=O)O)Nc1nc2ccc([N+](=O)[O-])cc2s1` [Compound L335N15-07] cannot be ordered by IC50: over 100 µM for the first, over 100 µM for the second.

`O=C(Nc1nc2ccccc2s1)C(c1ccccc1)S(=O)(=O)O` (centres unmarked) [Compound L319N15] and `O=C(CS(=O)(=O)O)Nc1nc2ccccc2s1` [Compound L335N15] cannot be ordered by IC50: over 200 µM for the first, over 100 µM for the second.
